These results are taken from ChEMBL document CHEMBL5143529, “Design, synthesis, and biological evaluation of novel (4-(1,2,4-oxadiazol-5-yl)phenyl)-2-aminoacetamide derivatives as multifunctional agents for the treatment of Alzheimer's disease” (Eur J Med Chem, 2022).

Some results are limits rather than exact numbers.

Data set [1] has as its system PC-12. The experiment in a line: Neuroprotective activity against H202-induced cell death in rat PC-12 cells assessed as cell viability at 5 uM pretreated for 3 hrs followed by H2O2 stimulation and measured after 24 hrs by MTT assay relative to control. The format is functional. The note with it: time 27 hrs, read-out: Activity.
In data set [2] the test system is PC-12. Nature of the data set: Neuroprotective activity against H202-induced cell death in rat PC-12 cells assessed as cell viability at 20 uM pretreated for 3 hrs followed by H2O2 stimulation and measured after 24 hrs by MTT assay relative to control. Type of data set: functional. As to conditions: time 27 hrs, read-out: Activity.
Data set [3] is described as follows: Cytotoxicity against rat PC-12 cells assessed as cell viability at 25 uM incubated for 24 hrs by MTT assay relative to control. The format is toxicity, cell-based. As to conditions: read-out: Activity.
Data set [4] can be described thus: Cytotoxicity against rat PC-12 cells assessed as cell viability at 50 uM incubated for 24 hrs by MTT assay relative to control. Type of data set: toxicity, cell-based. The note with it: read-out: Activity.
A short description of data set [5]: cells. As to conditions: Mus musculus, BV-2.
Description: Inhibition of NO production in LPS-induced mouse BV-2 cells pretreated for 1 hr followed by LPS stimulation and measured after 24 hrs by ELISA
Data set [6] addresses Cholinesterase (Equus caballus, UniProt P81908).
Description: Inhibition of equine serum BuChE using butyrylthiocholine iodide as substrate preincubated for 20 mins followed by substrate addition and measured after 5 mins by DTNB-reagent based Ellman's method
Data set [7] addresses Acetylcholinesterase (Electrophorus electricus, UniProt O42275). Nature of the data set: Inhibition of electric eel AChE using acetylthiocholine iodide as substrate preincubated for 20 mins followed by substrate addition and measured after 5 mins by DTNB-reagent based Ellman's method.

Acetylcholinesterase, sequence (O42275 whole entry): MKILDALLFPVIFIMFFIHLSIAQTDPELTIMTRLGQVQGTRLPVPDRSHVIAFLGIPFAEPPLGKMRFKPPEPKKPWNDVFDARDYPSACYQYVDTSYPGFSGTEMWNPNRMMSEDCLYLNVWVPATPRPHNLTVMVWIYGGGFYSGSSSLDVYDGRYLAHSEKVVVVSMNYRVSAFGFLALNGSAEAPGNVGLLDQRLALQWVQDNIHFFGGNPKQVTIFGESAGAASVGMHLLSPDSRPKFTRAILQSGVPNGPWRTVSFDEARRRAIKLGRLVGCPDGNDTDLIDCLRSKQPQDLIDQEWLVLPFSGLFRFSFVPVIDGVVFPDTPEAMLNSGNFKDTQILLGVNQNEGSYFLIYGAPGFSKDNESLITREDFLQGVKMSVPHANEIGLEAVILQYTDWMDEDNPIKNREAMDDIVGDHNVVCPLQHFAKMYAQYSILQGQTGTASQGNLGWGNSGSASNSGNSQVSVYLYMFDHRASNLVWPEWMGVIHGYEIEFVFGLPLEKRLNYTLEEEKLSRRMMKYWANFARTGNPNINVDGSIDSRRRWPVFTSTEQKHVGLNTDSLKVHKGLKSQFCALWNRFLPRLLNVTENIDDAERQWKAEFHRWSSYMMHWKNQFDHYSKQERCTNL
Cholinesterase, sequence (P81908 whole entry): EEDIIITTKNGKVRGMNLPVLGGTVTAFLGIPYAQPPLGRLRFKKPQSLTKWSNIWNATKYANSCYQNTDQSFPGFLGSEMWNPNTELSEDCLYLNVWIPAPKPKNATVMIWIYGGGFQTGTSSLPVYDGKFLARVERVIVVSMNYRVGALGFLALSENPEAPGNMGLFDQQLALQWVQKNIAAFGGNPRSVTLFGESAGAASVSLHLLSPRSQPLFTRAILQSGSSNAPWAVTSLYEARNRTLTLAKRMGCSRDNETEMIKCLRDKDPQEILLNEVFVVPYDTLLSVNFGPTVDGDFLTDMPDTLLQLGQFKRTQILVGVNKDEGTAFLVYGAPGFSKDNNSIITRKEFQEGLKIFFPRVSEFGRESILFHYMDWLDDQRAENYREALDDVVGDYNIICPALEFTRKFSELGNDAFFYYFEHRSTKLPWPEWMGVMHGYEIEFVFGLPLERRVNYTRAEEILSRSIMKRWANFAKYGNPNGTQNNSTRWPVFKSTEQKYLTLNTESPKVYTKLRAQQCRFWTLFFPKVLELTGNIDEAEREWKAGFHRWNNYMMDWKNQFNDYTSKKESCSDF

With `COc1ccc(NCC(=O)Nc2ccc(-c3nc(-c4ccnc(Nc5ccc(OC(F)(F)F)cc5)c4)no3)cc2)cc1`, the viability at 5 µM in data set [1] came to 33.2%. Besides, the viability at 20 µM in data set [2] amounted to 44.6%. For the same compound, the viability at 24 h, 25 µM in data set [3] is 99%. In addition, the viability at 24 h, 50 µM in data set [4] turned out to be 98.7%. For the same compound, the half-inhibitory concentration (IC50) in data set [5] is 6.95 µM; in data set [6] it was more than 50 µM; in data set [7], more than 50 µM.
With `O=C(CNCc1ccccc1)Nc1ccc(-c2nc(-c3ccnc(Nc4ccc(OC(F)(F)F)cc4)c3)no2)cc1`, the viability at 5 µM in data set [1] is 43.2%. For the same compound, in data set [2], the viability at 20 µM came out at 53.5%. Besides, the viability at 24 h, 25 µM in data set [3] stood at 99.7%. Further, the viability at 24 h, 50 µM in data set [4] turned out to be 99.5%. The IC50 in data set [5] is 7.48 µM; in data set [6], 39.2 µM; in data set [7], more than 50 µM.
As to `O=C(CNCc1cccc(F)c1)Nc1ccc(-c2nc(-c3ccnc(Nc4ccc(OC(F)(F)F)cc4)c3)no2)cc1`, the viability at 5 µM in data set [1] turned out to be 28.1%. Besides, in data set [2], the viability at 20 µM turned out to be 36.2%. For the same compound, the viability at 24 h, 25 µM in data set [3] was 98.4%. For the same compound, the viability at 24 h, 50 µM in data set [4] was found to be 96.7%. Moreover, the results for the IC50 in data set [5], in data set [6] and in data set [7] were 13 µM, 45.3 µM and more than 50 µM, respectively.
In the case of `O=C(CNc1ccc(Br)cc1)Nc1ccc(-c2nc(-c3ccnc(Nc4ccc(OC(F)(F)F)cc4)c3)no2)cc1`, the viability at 5 µM in data set [1] was determined as 37.8%. Besides, in data set [2], the viability at 20 µM was 46.5%. In data set [3], the viability at 24 h, 25 µM stood at 99.7%. Moreover, in data set [4], the viability at 24 h, 50 µM was 99.1%. Moreover, the 50% inhibitory concentration (IC50) in data set [5] is 4.22 µM; in data set [6], 10.5 µM; in data set [7] it was more than 50 µM.
Regarding `CC(C)CNCC(=O)Nc1ccc(-c2nc(-c3ccnc(Nc4ccc(OC(F)(F)F)cc4)c3)no2)cc1`, the viability at 5 µM in data set [1] came to 34.1%. Moreover, the viability at 20 µM in data set [2] amounted to 43.9%. In data set [3], the viability at 24 h, 25 µM is 99.9%. Also, in data set [4], the viability at 24 h, 50 µM was 99.6%. Moreover, the IC50 in data set [5] is 3.88 µM; in data set [6], 29.4 µM; in data set [7], more than 50 µM.
`Oc1ccc(/C=C/c2cc(O)cc(O)c2)cc1` [RESVERATROL] came in with an IC50 in data set [5] of 11 µM.
In the case of `Cc1ccccc1NCC(=O)Nc1ccc(-c2nc(-c3ccnc(Nc4ccc(OC(F)(F)F)cc4)c3)no2)cc1`, the viability at 5 µM in data set [1] came to 45.2%. In data set [2], the viability at 20 µM amounted to 55.2%. In addition, the viability at 24 h, 25 µM in data set [3] came to 99.6%. The viability at 24 h, 50 µM in data set [4] amounted to 99.3%. Moreover, the 50% inhibitory concentration (IC50) in data set [5] is 8.74 µM; in data set [6], 25.8 µM; in data set [7], more than 50 µM.
With `COc1cccc(NCC(=O)Nc2ccc(-c3nc(-c4ccnc(Nc5ccc(OC(F)(F)F)cc5)c4)no3)cc2)c1`, the viability at 5 µM in data set [1] stood at 30.7%. Further, the viability at 20 µM in data set [2] was determined as 33.7%. Besides, the viability at 24 h, 25 µM in data set [3] was 99.5%. Moreover, the viability at 24 h, 50 µM in data set [4] came to 98.3%. The values for the half-inhibitory concentration (IC50) in data set [5], in data set [6] and in data set [7] were 13.2 µM, 33.5 µM and more than 50 µM, respectively.
Consider `O=C(CNCc1ccc(F)cc1)Nc1ccc(-c2nc(-c3ccnc(Nc4ccc(OC(F)(F)F)cc4)c3)no2)cc1`, for which the viability at 5 µM in data set [1] amounted to 41.9%. Moreover, in data set [2], the viability at 20 µM is 48.6%. In data set [3], the viability at 24 h, 25 µM was determined as 100%. Also, the viability at 24 h, 50 µM in data set [4] was determined as 99.8%. In addition, the IC50 in data set [5] is 9.23 µM; in data set [6], 37.8 µM; in data set [7], more than 50 µM.
In the case of `O=C(CNc1cccc(F)c1)Nc1ccc(-c2nc(-c3ccnc(Nc4ccc(OC(F)(F)F)cc4)c3)no2)cc1`, the viability at 5 µM in data set [1] was 39.4%. Also, the viability at 20 µM in data set [2] is 58.5%. The viability at 24 h, 25 µM in data set [3] turned out to be 99.6%. In addition, the viability at 24 h, 50 µM in data set [4] amounted to 99.3%. The results for the IC50 in data set [5], in data set [6] and in data set [7] were 3.16 µM, 5.51 µM and more than 50 µM, respectively.
`O=C(CNc1ccc(Cl)cc1)Nc1ccc(-c2nc(-c3ccnc(Nc4ccc(OC(F)(F)F)cc4)c3)no2)cc1`: the viability at 5 µM in data set [1] came to 43.6%. The viability at 20 µM in data set [2] was 61.6%. The viability at 24 h, 25 µM in data set [3] stood at 98.8%. Moreover, in data set [4], the viability at 24 h, 50 µM amounted to 98.2%. The IC50 in data set [5] came to 2.58 µM; in data set [6] it was 7.39 µM; in data set [7], 45.2 µM.
Take `O=C(CNC1CC1)Nc1ccc(-c2nc(-c3ccnc(Nc4ccc(OC(F)(F)F)cc4)c3)no2)cc1`: the viability at 5 µM in data set [1] was 33.5%. In addition, the viability at 20 µM in data set [2] turned out to be 46.7%. Besides, in data set [3], the viability at 24 h, 25 µM amounted to 100%. Moreover, the viability at 24 h, 50 µM in data set [4] is 99.7%. Also, the figures for the IC50 in data set [5], in data set [6] and in data set [7] were 5.67 µM, 24.3 µM and 48.9 µM, respectively.
Turning to `O=c1c(O)c(-c2ccc(O)c(O)c2)oc2cc(O)cc(O)c12` [QUERCETIN], the viability at 5 µM in data set [1] is 48.2%. Further, the viability at 20 µM in data set [2] came out at 59.4%. Moreover, the viability at 24 h, 25 µM in data set [3] came out at 99.6%. For the same compound, in data set [4], the viability at 24 h, 50 µM stood at 99.5%.
For `O=C(CNCc1cccc(Cl)c1)Nc1ccc(-c2nc(-c3ccnc(Nc4ccc(OC(F)(F)F)cc4)c3)no2)cc1`, in data set [1], the viability at 5 µM was 33.4%. For the same compound, in data set [2], the viability at 20 µM was 43.9%. Further, the viability at 24 h, 25 µM in data set [3] was found to be 99.8%. Besides, the viability at 24 h, 50 µM in data set [4] was determined as 99.7%. Further, the IC50 is 14.6 µM in data set [5], more than 50 µM in data set [6] and more than 50 µM in data set [7].
As to `O=C(CNc1cccc(Cl)c1)Nc1ccc(-c2nc(-c3ccnc(Nc4ccc(OC(F)(F)F)cc4)c3)no2)cc1`, in data set [1], the viability at 5 µM stood at 34.1%. For the same compound, in data set [2], the viability at 20 µM was determined as 37.7%. Moreover, in data set [3], the viability at 24 h, 25 µM is 99.4%. Besides, the viability at 24 h, 50 µM in data set [4] stood at 98.7%. For the same compound, the IC50 in data set [5] was 3.66 µM; in data set [6], 12.8 µM; in data set [7], more than 50 µM.
On to `O=C(CNC1CCCC1)Nc1ccc(-c2nc(-c3ccnc(Nc4ccc(OC(F)(F)F)cc4)c3)no2)cc1`, for which the viability at 5 µM in data set [1] worked out at 44.1%. Moreover, in data set [2], the viability at 20 µM came to 57%. Further, the viability at 24 h, 25 µM in data set [3] was found to be 99.5%. In data set [4], the viability at 24 h, 50 µM is 98.2%. Moreover, the IC50 is 2.66 µM in data set [5], 16.6 µM in data set [6] and more than 50 µM in data set [7].
Consider `Cc1cccc(NCC(=O)Nc2ccc(-c3nc(-c4ccnc(Nc5ccc(OC(F)(F)F)cc5)c4)no3)cc2)c1`, for which the viability at 5 µM in data set [1] was 50.1%. For the same compound, the viability at 20 µM in data set [2] is 50.7%. The viability at 24 h, 25 µM in data set [3] was 99.6%. Further, the viability at 24 h, 50 µM in data set [4] turned out to be 99.2%. The half-maximal inhibitory concentration (IC50) is 7.29 µM in data set [5], 20.2 µM in data set [6] and more than 50 µM in data set [7].
Take `CCCNCC(=O)Nc1ccc(-c2nc(-c3ccnc(Nc4ccc(OC(F)(F)F)cc4)c3)no2)cc1`: the viability at 5 µM in data set [1] worked out at 41.4%. Besides, the viability at 20 µM in data set [2] stood at 52.8%. Moreover, the viability at 24 h, 25 µM in data set [3] is 99.6%. The viability at 24 h, 50 µM in data set [4] is 99.5%. In addition, the IC50 in data set [5] was 7.82 µM; in data set [6], 23.3 µM; in data set [7], more than 50 µM.
For the compound `O=C(CNCc1ccc(C(F)(F)F)cc1)Nc1ccc(-c2nc(-c3ccnc(Nc4ccc(OC(F)(F)F)cc4)c3)no2)cc1`, the viability at 5 µM in data set [1] amounted to 25.7%. Further, the viability at 20 µM in data set [2] was 33%. Also, in data set [3], the viability at 24 h, 25 µM was 99.7%. For the same compound, the viability at 24 h, 50 µM in data set [4] stood at 99.4%. For the same compound, the IC50 in data set [5] is 8.48 µM; in data set [6], 30.9 µM; in data set [7], more than 50 µM.
